Experimental data from article PMC12196810, “A Dual Bioassay for Evaluation of Embryotoxicity and Acute Toxicity of Common Solvents and Surfactants in Artemia salina” (Toxics, 2025).
Entries after “also recorded” stand apart in the source; their conditions may differ.

Assays:
Artemia salina nauplii = experiment: Brine shrimp lethality test; details: for toxicity in the lethality test, in words: 24 and 48 h, 0.05–5% (w/v); for LC50: nauplii, 0.05–5.0% (w/v) tested; for LC50 values: both timepoints (24 and 48 h), summary statement
Protocol: Artemia salina cysts were hatched in beakers filled with artificial sea water at a salinity of 35 g/L, under continuous aeration, and at a temperature of 25 ± 1 °C for 48 h and a light/dark cycle of 16/8 h. The constant conditions were maintained using a plant growth chamber (Sanyo MLR-351 H, San Diego, CA, USA). After hatching, the Artemia nauplii were separated and brought in aerated fresh artificial sea water. A number of ten nauplii were added in tissue culture plates containing 24 wells (Greiner Bio-One, Kremsmünster, Austria), along with the tested solutions [29, 30]. […] Artificial sea water was used as negative control and sodium lauryl sulfate as positive control. The artificial seawater was prepared according to the instructions provided by the Artemia egg manufacturer, using the supplied salts dissolved in distilled water. A total of 5 L was prepared, aerated, and stored at 4 °C, in dark for no more than two weeks. Before use, the artificial seawater was aerated again. […] The lethality values were calculated and were plotted against the logarithm of concentrations, using the least square fit method to obtain lethality curves. […] The photographs were taken using an ODC 825 Microscope Digital Camera (KERN, Balingen, Germany), with a resolution of 5.1 MP and a 1/2.5″ Aptina CMOS sensor, and processed using Microscope-VIS software 2.0 (KERN Balingen, Germany).

Artemia salina cysts [1] = experiment: Hatching inhibition test; assay type: in vivo; details: for IC50 (hatching inhibition): cysts, 0.1–2.5% (w/v) tested; for inhibition of hatching, in words: 0.1–2.5%
Protocol: SLS was used as positive control and artificial sea water as negative control. The determination was performed according to the protocols described in the literature, with some modifications.
Each sample was performed in duplicate, and artificial sea water was used as control. The hatching process was monitored at 24 and 48 h, and stages 0 and Instar I–III were considered for the quantification. Randomization and blinding were not applied in the assays, as the evaluation of developmental stages is considered objective and unlikely to be influenced by observer bias. The inhibition of the hatching (HI) process was calculated versus the control using the formula presented by Rotini et al.. HI50 was calculated by interpolating on the curves plotted, using the logarithm of concentrations and the hatching inhibition (%) with the least square fit method.

Artemia salina cysts [2] = experiment: Hatching and development of nauplii (stage groups A–D); assay type: in vivo; details: for individuals reaching Group D (Instar I–III): 48 h
Protocol: Each sample was monitored using a stereo-microscope (STMLAB, Monza, Italy) and a bright-field microscope (Euromex, Bscope series, Groningen, The Netherlands) at both moments of determination. After 48 h, a mixture of ethanol and acetic acid in the ratio of 3:1 (v/v) was added to each sample to ensure the preservation for further observations. Depending on the development stage of each sample, the hatching process was divided into four main groups (A–D), and expressed as percents (%). The first group were the unhatched eggs (group A) that remain unchanged between the rehydration operation and the moment of observation; in the second group were the eggs with a broken shell (group B) with evident cracks and modified shape; the third category corresponds to the hatching moment, and it was noted as stage 0 (group C), when the nauplii are pear-shaped or umbrella-shaped and immobile; the fourth stage corresponds to larval stages that comprise the naupliar development stages Instar I–III (group D). All samples were compared to the untreated control to identify non-disruptive concentrations and solvent compatibility for future hatching assays.

[3] = all concentrations (0.1–2.5%), 24 and 48 h
[4] = 48 h, all concentrations (0.05–5%)

Compound | toxicity in the lethality test, in words (Artemia salina nauplii) | LC50 (Artemia salina nauplii; 24 h exposure) [%] | lethality (Artemia salina nauplii; 48 h, concentrations ≥ 1%) [%] | LC50 (Artemia salina nauplii; 48 h exposure) [%] | inhibition of hatching, in words (Artemia salina cysts [1]; 24 and 48 h) | effect on development, in words (Artemia salina cysts [2]; 0.1–2.5%, 24 and 48 h) | further results
CCN(CC)C(=O)c1cccnc1 [DENA, N,N-diethylnicotinamide] | highly toxic | 0.22 | 100 | 0.05 |  |  | lethality (Artemia salina nauplii; 48 h, at 0.1%): 45%; IC50 (hatching inhibition) (Artemia salina cysts [1]; 24 h): 0.97%; IC50 (hatching inhibition) (Artemia salina cysts [1]; 48 h): 1.10%; inhibition of hatching (Artemia salina cysts [1]; at 2.5%): full inhibition; effect on development, in words (Artemia salina cysts [2]; at 2.5%): development was arrested in Groups A and B
CN(C)C(=O)c1ccccc1 [DMBA, N,N-dimethylbenzamide] | highly toxic | 0.13 | 100 | 0.09 |  |  | lethality (Artemia salina nauplii; 24 h, down to 0.5%): 100%; lethality (Artemia salina nauplii; 48 h, at 0.1%): 75%; LC50 values (Artemia salina nauplii): ≤ 1%; IC50 (hatching inhibition) (Artemia salina cysts [1]; 24 h): 0.27%; inhibition of hatching (Artemia salina cysts [1]; 24 h, high concentrations): exceeding 90%; IC50 (hatching inhibition) (Artemia salina cysts [1]; 48 h): 19.23%; effect on development, in words (Artemia salina cysts [2]; from 0.5% upward): no significant presence in Group D
CN(C)C=O [DMF, dimethylformamide] | moderate toxicity | 1.24 |  | 1.06 |  |  | lethality (Artemia salina nauplii; 48 h, at 1%): up to 80%
C[S+](C)[O-] [DMSO, dimethyl sulfoxide] | moderate-to-low toxicity; also recorded: very low toxicity |  |  |  | very low or no inhibition; also recorded: minimal or no inhibition | very low developmental toxicity | toxicity in the lethality test, in words (Artemia salina nauplii; listed as dimethyl sulfoxide): low toxicity; lethality (maximum) (Artemia salina nauplii; 24 h, at 0.1%): 25%; lethality (peak) (Artemia salina nauplii; 48 h, at 0.5%): 45%; embryos developed fully (Group D) (Artemia salina cysts [2]; at 2.5%): over 80%
CN(C)C(N)=O [DMU, N,N-dimethylurea] | moderate toxicity | 0.94 | 100 | 0.08 |  |  | inhibition of hatching (Artemia salina cysts [1]; [3]): under 50%; individuals reaching Group D (Instar I–III) (Artemia salina cysts [2]; at 0.1%): over 80%
OCC(O)CO [GLY, glycerol] | very low toxicity |  |  |  | very low or no inhibition; also recorded: minimal or no inhibition | negligible impact on development | toxicity in the lethality test, in words (Artemia salina nauplii; listed as Glycerin): low toxicity; lethality (Artemia salina nauplii; [4]): up to 40%
CC(O)CO (stereo not shown) [PDO, propylene glycol] | very low toxicity |  |  | 1.64 | very low or no inhibition; also recorded: minimal or no inhibition | minimal interference | toxicity in the lethality test, in words (Artemia salina nauplii; listed as propylene glycol): low toxicity; lethality (Artemia salina nauplii; 48 h, highest concentration (5%)): 95%
Cc1ccc(S(=O)(=O)O)cc1.[Na] [PTS, sodium p-toluenesulfonate] | highly toxic |  | 100 |  |  |  | lethality (Artemia salina nauplii; 24 h, highest concentration (5%)): 100%; lethality (Artemia salina nauplii; 48 h, at 0.1%): 90%; LC50 values (Artemia salina nauplii): ≤ 1%; IC50 (hatching inhibition) (Artemia salina cysts [1]; 24 h): ~2.49%; inhibition of hatching (Artemia salina cysts [1]; at 2.5%): strong suppression; individuals reaching Group D (Instar I–III) (Artemia salina cysts [2]; at 1%): over 60%; effect on development, in words (Artemia salina cysts [2]; at 2.5%): Groups A and B became dominant
O=S(=O)([O-])c1cccc(S(=O)(=O)[O-])c1.[Na+].[Na+] [SBDS, sodium benzene-1,3-disulfonate] |  |  |  |  |  | low impact on embryonic development | inhibition of hatching (Artemia salina cysts [1]; [3]): under 50%
O=S(=O)([O-])c1ccccc1.[Na+] [SBS, sodium benzenesulfonate] | moderate toxicity | 0.93 | 100 | 0.21 | only moderate suppression | moderate developmental delay | 
CCCCCCCCCCCCOS(=O)(=O)[O-].[Na+] [SLS, sodium lauryl sulfate, reference compound] | highly toxic; also recorded: such high mortality at all tested concentrations |  |  |  | complete or near complete inhibition | complete developmental arrest | lethality (Artemia salina nauplii; 24 h, across all concentrations (0.05–5%)): 100%; lethality (Artemia salina nauplii; [4]): 100%
NC(N)=O [Urea, urea] | moderate toxicity | 1.11 |  | 0.74 |  |  | inhibition of hatching (Artemia salina cysts [1]; [3]): under 50%; effect on development, in words (Artemia salina cysts [2]; at 2.5%): some developmental delay
Tween 20 | such high mortality at all tested concentrations |  |  |  |  |  | 
Tween 80 | such high mortality at all tested concentrations |  |  |  |  |  | 
sodium xylenesulfonate [SXS] |  | 1.01 | 100 | 0.79 |  |  | LC50 values (Artemia salina nauplii): ≤ 1%; IC50 (hatching inhibition) (Artemia salina cysts [1]; 24 h): 0.28%; IC50 (hatching inhibition) (Artemia salina cysts [1]; 48 h): 0.41%; inhibition of hatching (Artemia salina cysts [1]; at 2.5%): 100%; effect on development, in words (Artemia salina cysts [2]; at 2.5%): no development beyond Group B occurred
